± gives the expanded uncertainty stated by the source.
Key:
[1] = Crystal; visual observation
[2] = wn = mass fraction of the nth substance listed; details: 101 kPa, Liquid; for viscosity: Capillary tube (Ostwald / Ubbelohde) method; for mass density: Pycnometric method

[Br-].[Br-].c1cc[n+](CCCCC[n+]2ccccc2)cc1 [1,1'-(pentane-1,5-diyl)-bis(pyridinium) dibromide]
Details | Normal melting temperature [°C]
[1] | 198.00 ± 2.9

CCO [ethanol] + O
[2]
Details | mass density, w1 = 0.1 [kg/m3] | mass density, w1 = 0.2 [kg/m3] | mass density, w1 = 0.3 [kg/m3] | mass density, w1 = 0.4 [kg/m3] | mass density, w1 = 0.5 [kg/m3] | viscosity, w1 = 0.1 [mPa·s] | viscosity, w1 = 0.2 [mPa·s] | viscosity, w1 = 0.3 [mPa·s] | viscosity, w1 = 0.4 [mPa·s] | viscosity, w1 = 0.5 [mPa·s]
293.15 K | 981.8 ± 0.6 | 968.2 ± 0.8 | 953.6 ± 1.1 | 935.5 ± 1.4 | 913.9 ± 1.8 | 1.538 ± 0.034 | 2.183 ± 0.05 | 2.701 ± 0.064 | 2.91 ± 0.071 | 2.87 ± 0.074
303.15 K | 979 ± 0.6 | 964.1 ± 0.9 | 947.4 ± 1.1 | 927.2 ± 1.4 | 905.6 ± 1.8 | 1.16 ± 0.026 | 1.553 ± 0.035 | 1.87 ± 0.044 | 2.02 ± 0.05 | 2.022 ± 0.052
313.15 K | 974.6 ± 0.6 | 958.7 ± 0.9 | 940.3 ± 1.1 | 919.8 ± 1.4 | 897.6 ± 1.7 | 0.9068 ± 0.02 | 1.16 ± 0.027 | 1.368 ± 0.032 | 1.482 ± 0.037 | 1.499 ± 0.039

Source: the NIST ThermoML archive (doi:10.1021/je900743e)
